Measured values as given in patent US20110076331A1, “Use of Deuterium Oxide as an Elastase Inhibitor” (priority 2008, published 2011).

Legend:
[1] = target: T1, human neutrophil elastase (HNE) (Homo sapiens, UniProt P08246); assay: Inhibition of AAPV conversion by human neutrophil elastase (photometric, 405 nm); format: biochemical
T1 sequence (P08246 30-267): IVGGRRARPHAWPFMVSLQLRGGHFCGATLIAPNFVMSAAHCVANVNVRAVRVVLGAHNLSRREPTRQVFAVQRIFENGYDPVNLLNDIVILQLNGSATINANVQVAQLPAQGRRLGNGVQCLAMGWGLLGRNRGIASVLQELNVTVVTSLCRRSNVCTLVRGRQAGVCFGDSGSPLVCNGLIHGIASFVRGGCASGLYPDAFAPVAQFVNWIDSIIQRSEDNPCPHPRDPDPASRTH
Experimental: Measurement of AAPV conversation occurred spectrophotometrically at a wavelength of 405 nm.
HNE was incubated together with the synthetic substrate N-methoxysuccinyl-Ala-Ala-Pro-Val-p-nitroanilide (AAPV). Conversion of AAPV was then determined photometrically at 405 nm. The following incubation scheme was used: • Sample 1) HNE IN D2O with AAPV in D2O; • Sample 2) HNE in D2O with AAPV in H2O; • Sample 3) HNE in H2O with AAPV in D2O; • Control: HNE in H2O with AAPV in H2O.
The enzyme and substrate were each incubated for 60 minutes with H2O or D2O before HNE and AAPV were added together. The amount of D2O in the experiments was varied over a range from 10 to 100% in order to detect the dependence of inhibition of AAPV conversion by HNE.
A half-maximum effective dose was determined at a D2O content of about 40 vol %. At 100% D2O in the mixture an inhibition of AAPV conversion of about 70% was achieved.

[2] = test system: patients with leukocytoclastic skin vasculitis; assay: Half-side gel experiment in leukocytoclastic skin vasculitis; format: in vivo, human; settings: D2O-containing gel on lower leg three times a day, 4 days; vs H2O gel
Experimental: Leukocytoclastic skin vasculitis is characterized by recurring behavior. A special feature of this dermatosis is destruction of cutaneous capillaries by an inflammatory process in which neutrophil granulocytes participate almost exclusively. To check the effect of D2O-containing gel on the extent of cutaneous lesions patients with leukocytoclastic skin vasculitis were treated in a half-side experiment. Either an H2O- or D2O-containing gel were applied in randomized fashion on the right or left lower leg three times a day. After a treatment time of 4 days the treatments was compared by means of a clinical score that evaluates the number and expression of vasculitis lesions.

[3] = test system: subjects with acute sinusitis; assay: Aerosol inhalation in acute sinusitis (rhinoendoscopy); format: in vivo, human; settings: D2O aerosol with 150 mM NaCl inhaled for 15 minutes
Experimental: Aerosols from D2O and H2O each mixed with 150 mM NaCl were prepared according to example 2. Subjects with acute sinusitis in the maxillary sinus area were divided into two groups. The experimental group inhaled the D2O aerosol for 15 minutes, the control group the H2O aerosol. During inhalation the subjects were relied on to inhale through the nose as much as possible. Every 3 hours after inhalation a rhinoendoscopic examination of the sinuses was conducted.

Long-Evans rats = assay: Cerebral ischemia/reperfusion animal model; format: in vivo, rat; settings: D2O in isotonic saline infused 15 minutes before ischemia and right before reperfusion; vs H2O
Experimental: The effect of D2O on cerebral ischemia was investigated in an animal model. For this purpose cerebral ischemia was produced for 1 hour in adult Long-Evans rats by closure of both carotid arteries, which followed reperfusion over 24 hours. Final observation with evaluation of neurovegetative symptoms occurred (spontaneous activity, coordinated walking, stretching of the front paw and climbing). Damage to the brain tissue was then investigated histologically. In two experimental groups of three rats each, either D2O (experimental group) or H2O (control group) in isotonic saline was infused in the animals 15 minutes before initiation of ischemia and right before subsequent reperfusion.

[4] = test system: patients with Wegener's disease; assay: D2O infusions in Wegener's granulomatosis (open study); format: in vivo, human; settings: 500 mL isotonic saline prepared with 70% D2O infused once a day over a week in addition to individual therapy; vs conventionally treated patients
Experimental: Activation of neutrophil granulocytes is assigned importance in the pathogenesis of Wegener granulomatosis. The disease activity can be determined by determining proteinase 3-antineutrophil cytoplasmic antibodies (PR3-ANCA).
In patients with Wegener's disease in an open study the effect of additional infusion of 500 mL of an isotonic saline solution prepared with 70% D2O was investigated once a day over a week in addition to individual systemic therapy in five patients. Determination of PR3-ANCA in the serum before and after 1 week after the last D2O infusion served as control parameter. Five patients in whom individual therapy was used exclusively without additional infusions served as comparison. […] This permits the conclusion that systemic use of D2O for adjunctive therapy of systemic vasculites is suitable.

[2H]O[2H] [D2O, deuterium oxide]
half-maximum effective dose (D2O content) for inhibition of AAPV conversion ([1]; D2O amount in the mixture of HNE and AAPV, 60 minutes preincubation): about 40 vol %
inhibition of AAPV conversion ([1]; at 100% D2O in the mixture): about 70%
clinical score (number and expression of vasculitis lesions) [2]: distinct reduction of the clinical score
mucosal swelling ([3]; vs H2O aerosol control group): significant reduction of mucosal swelling
outflow of secretion ([3]; vs control group): improved outflow of secretion
reperfusion damage (granulocytes in histological sections, neurological behavior) (Long-Evans rats): significant effect on the reduction in reperfusion damage
PR3-ANCA values in the serum [4]: stronger reduction of PR3-ANCA values
